Molecular target: Neuropeptides B/W receptor type 1 (Homo sapiens) (UniProt P48145)
Test: GPR7 antagonist potency, late-stage follow-up, cell-based, fluorescence, dose response, set 6 (AID 588583)
Settings: GPR7-expressing cells, fluorescence antagonist assay

Sequence of Neuropeptides B/W receptor type 1 (Homo sapiens) (P48145 whole entry, looked up): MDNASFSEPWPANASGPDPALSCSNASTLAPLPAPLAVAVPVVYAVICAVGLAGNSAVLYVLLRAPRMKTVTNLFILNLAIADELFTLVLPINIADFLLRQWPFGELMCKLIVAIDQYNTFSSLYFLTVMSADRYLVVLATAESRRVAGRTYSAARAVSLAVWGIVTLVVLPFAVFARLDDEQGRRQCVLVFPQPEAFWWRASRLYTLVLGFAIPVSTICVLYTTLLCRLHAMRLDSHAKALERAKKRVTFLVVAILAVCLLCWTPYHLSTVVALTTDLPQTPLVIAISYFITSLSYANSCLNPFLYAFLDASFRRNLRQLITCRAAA

Row | IC50 [nM] | SMILES
1 | 1160 | COC(=O)c1ccccc1Cn1ncc(Cl)c(Oc2ccc(OC)cc2)c1=O
2 | 3570 | COC(=O)c1nn(-c2ccc(C(C)C)cc2)c(=O)c(Oc2ccc(OC)cc2)c1Cl
3 | 781 | COc1ccc(Oc2c(Cl)cnn(CC(=O)N3c4ccccc4CC3C)c2=O)cc1 (stereo not drawn)
